Reference: patent US9504699B2, “Delayed-release glucocorticoid treatment of rheumatoid disease” (Horizon Pharma AG, priority 2006, dated 2016)

Tests used:
Type in all cases: in vivo, human
adult RA patients [1] = test: 9-month open follow-up on Prednisone delayed-release: duration of morning stiffness; details: prednisone = all subjects
Excerpt: Although efficacy was not the main objective of this open follow-up study, the order of reporting was kept the same as in the previous study report on the double-blind phase. […] Mean Daily Duration of Morning Stiffness
The mean daily duration of morning stiffness at start of the double-blind period (Visit 2), at start of the open follow-up period (Visit 5) and at end of study (Visit 8) as well as the relative changes are presented in Table 10 and FIG. 2 for the study population.
Taking advantage of the higher number of available data, the interpretation of the results was carried out for the total numbers.

adult RA patients [2] = test: Phase III study, double-blind phase: adverse events
CRP = test: 9-month open follow-up: CRP; details: after 12 weeks double-blind, by group; prednisone = Total
Excerpt: The median values of the inflammatory signs CRP and IL-6 during the open follow-up period (Visit 5 to Visit 8) and the respective absolute changes are presented in Table 12 and FIG. 3.

[3] = after 12 weeks double-blind, by group
[4] = subjects of open follow-up, by double-blind group
[5] = 12-week double-blind phase, prednisone = Total

C[C@]12C=CC(=O)C=C1CC[C@@H]1[C@@H]2C(=O)C[C@@]2(C)[C@H]1CC[C@]2(O)C(=O)CO [prednisone]
Duration of morning stiffness, Visit 5 (Start of Follow-up Period), mean (adult RA patients [1]; [3]): 125.56 min | Duration of morning stiffness, Visit 5 (Start of Follow-up Period), median (adult RA patients [1]; [3]): 83.93 min | Duration of morning stiffness, Visit 2 (Start of Double-blind Period), mean (adult RA patients [1]; [4]): 169.80 min | Duration of morning stiffness, Visit 2 (Start of Double-blind Period), median (adult RA patients [1]; [4]): 143.21 min | All AEs (at least one treatment-emergent AE) (adult RA patients [2]; 12-week double-blind phase, label prednisone = Total of both groups (N = 288)): 118 (41.0) No. (%) subjects | AE: Abdominal pain (Upper) (adult RA patients [2]; [5]): 13 (4.5) No. (%) subjects | AE: Flushing (adult RA patients [2]; [5]): 10 (3.5) No. (%) subjects | AE: Headache (adult RA patients [2]; [5]): 10 (3.5) No. (%) subjects | AE: Nasopharyngitis (values printed on the line headed 'Upper') (adult RA patients [2]; [5]): 12 (4.2) No. (%) subjects | AE: Nausea (adult RA patients [2]; [5]): 9 (3.1) No. (%) subjects | AE: Rheumatoid arthritis (adult RA patients [2]; [5]): 24 (8.3) No. (%) subjects | Drug-related AE: Abdominal pain (Upper) (adult RA patients [2]; [5]): 7 (2.4) No. (%) subjects | Drug-related AE: Headache (adult RA patients [2]; [5]): 6 (2.1) No. (%) subjects | Drug-related AE: Nausea (values printed on the line headed 'Upper') (adult RA patients [2]; [5]): 6 (2.1) No. (%) subjects | Drug-related AE: Rheumatoid arthritis (adult RA patients [2]; [5]): 5 (1.7) No. (%) subjects | SAEs (adult RA patients [2]; double-blind phase, both groups, 2.4%): Seven | AEs causing discontinuation of prednisone (adult RA patients [2]; double-blind phase, both groups, 7.6%): 22 subjects | SAE judged to be related to prednisone by the investigator (adult RA patients [2]; of the 7 subjects with SAEs): one | CRP (median), Visit 5 (Start of Follow-up) (CRP): 9.40 (n = 249) mg/L
